From EP3409761B1, “CULTURE MEDIUM COMPOSITION, AND METHOD FOR CULTURING CELL OR TISSUE USING SAID COMPOSITION” (Nissan Chemical Corporation, priority 2012, dated 2014)

How the values were obtained:
HepG2 cells [1] = assay: Toxicity test of compound to hepatocytes: number of viable cells (Cell Titer-Glo); assay type: cell-based, human; conditions: DAG 0.015%, 1 day, no addition = 1
Protocol: (§1) This aqueous solution was sterilized at 121°C for 20 min in an autoclave. On the other hand, HepG2 cells was mixed with DMEM medium (manufactured by WAKO) at 100000 cells/mL, and the cell suspension was dispensed to the wells of a 96-well flat bottom ultra low adhesion surface microplate (manufactured by Corning Incorporated, #3474) at 100 µL/well. […] Successively, this plate was cultured by being stood still in a CO2 incubator (37°C, 5% CO2) for 1 day.
The culture medium (50 µL) after culturing for 1 day was dispensed to a 96-well titer plate (manufactured by Corning Incorporated), to this culture medium was added a Cell Titer-Glo (registered trade mark) reagent (manufactured by Promega, 50 µL), and the mixture was incubated at room temperature for 10 min. The luminescence intensity was measured by a multiplate reader (manufactured by Molecular Devices, FlexStation3) to measure the number of viable cells.

HepG2 cells [2] = assay: Toxicity test of compound to hepatocytes: LDH activity measurement; assay type: cell-based, human; conditions: DAG 0.015%, 1 day
Protocol: as §1
To the culture medium (100 µL) after culturing for 1 day was added DMEM medium (manufactured by WAKO, 100 µL), and the plate was centrifuged by 4316.4 m·s^-2 (440G) for 15 min. The supernatant (100 µL) was dispensed to a 96-well titer plate (manufactured by Corning Incorporated), a reaction mixture (100 µL) in a cytotoxicity detection kit (manufactured by Roche Applied Science) was added, and the mixture was stood under shading at room temperature for 30 min. Successively, according to the protocol of the above-mentioned kit, the absorbance at 490 nm (reference; 600 nm) was measured by an absorbance spectrometer (manufactured by Molecular Devices, SPECTRA MAX 190), whereby the rate of the disordered cell, that is, cell disorder rate (%), was measured.

[3] = system: human squamous carcinoma cell line A431; assay: Effect of Gefitinib, Elrotinib on proliferation of A431 cells stimulated with human HB-EGF; assay type: cell-based; conditions: DAG 0.015%
Protocol: Each plate was cultured by being stood still in a CO2 incubator (37°C, 5% CO2). […] To the culture medium on days 4, 6 and 8 was added an ATP reagent (150 µL) (CellTiter-Glo (registered trade mark) Luminescent Cell Viability Assay, manufactured by Promega) to give a suspension, which was stood for about 10 min at room temperature, and the luminescence intensity (RLU value) was measured by FlexStation3 (manufactured by Molecular Devices), and the number of viable cells was measured by subtracting the luminescence value of the medium alone.

Cc1c(C)c2c(c(C)c1O)CCC(C)(COc1ccc(CC3SC(=O)NC3=O)cc1)O2 (stereo not shown) [Troglitazone]
relative cell number (HepG2 cells [1]; Troglitazone 20 µM): 0.68 | relative cell number (HepG2 cells [1]; Troglitazone 40 µM): 0.50 | relative cell number (HepG2 cells [1]; Troglitazone 60 µM): 0.48 | relative cell number (HepG2 cells [1]; Troglitazone 100 µM): 0.39 | cell disorder rate (HepG2 cells [2]; Troglitazone 20 µM): 2.68% | cell disorder rate (HepG2 cells [2]; Troglitazone 40 µM): 14.7% | cell disorder rate (HepG2 cells [2]; Troglitazone 60 µM): 22.5% | cell disorder rate (HepG2 cells [2]; Troglitazone 100 µM): 60.7%

C#Cc1cccc(Nc2ncnc3cc(OCCOC)c(OCCOC)cc23)c1 [Elrotinib]
% Control value of the RLU value (ATP measurement) ([3]; drug 0.1 µM, day 4): 88 % Control | % Control value of the RLU value (ATP measurement) ([3]; drug 0.1 µM, day 8): 56 % Control | % Control value of the RLU value (ATP measurement) ([3]; drug 0.3 µM, day 4): 89 % Control | % Control value of the RLU value (ATP measurement) ([3]; drug 0.3 µM, day 8): 27 % Control | % Control value of the RLU value (ATP measurement) ([3]; drug 1 µM, day 4): 21 % Control | % Control value of the RLU value (ATP measurement) ([3]; drug 1 µM, day 8): 4 % Control | % Control value of the RLU value (ATP measurement) ([3]; drug 3 µM, day 4): 4 % Control | % Control value of the RLU value (ATP measurement) ([3]; drug 3 µM, day 8): 0 % Control
